Test systems include Malme-3M; CCRF-CEM; SNB-75; OVCAR-4; K562; HCT-15; T47D; SK-OV-3; HCT-116; SN12C; CAKI-1; UACC-62; TK-10; RXF 393; NCI-H226; NCI-H522; MOLT-4; NCI-H23; A549; UO-31.
Common to all, as to assay: growth of human tumour cells (NCI), 48 h

Molecules are shown by their SMILES.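 Tested at 5 concentrations; 48 h exposure; 96-well plates; endpoints linearly interpolated, else capped at highest concentration. The concentration for 50% growth inhibition is given as GI50.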 Active and inactive are the calls of the source. No stated cut-off is given here; in the data, active = GI50 up to about 1.1 µM and inactive = higher.

Regarding `COc1ccc(C2SC(=N)Nc3c2c(C)nn3C(=O)c2ccncc2)cc1OC` (stereo not drawn), the GI50 in the assay with Malme-3M was > 10 µM (inactive); in the assay with CCRF-CEM it was > 10 µM (inactive); in the assay with SNB-75 it was > 10 µM (inactive); in the assay on OVCAR-4, > 10 µM (inactive); with K562, > 10 µM (inactive); in the assay with HCT-15, over 10 µM. For the same compound, the GI50 in the assay on T47D, with SK-OV-3, with HCT-116, in the assay with SN12C, with CAKI-1 and in the assay with UACC-62 was > 10 µM (inactive) in each case. Moreover, the GI50 in the assay on TK-10, with RXF 393, in the assay on NCI-H226, with NCI-H522, in the assay on MOLT-4 and with NCI-H23 was > 10 µM (inactive) in each case. In addition, the GI50 with A549 is > 10 µM (inactive).
In the case of `C/C(=N\Nc1nc2ccccc2n1C)c1cnccn1`, the GI50 was 0.0407 µM (active) in the assay on UO-31; 0.065 µM (active) in the assay on Malme-3M; 0.0513 µM (active) in the assay on CCRF-CEM; 5.13 µM (inactive) in the assay on SNB-75; 0.0504 µM (active) with OVCAR-4; < 0.0316 µM (active) in the assay on K562. The GI50 in the assay with HCT-15 was 0.0438 µM; with T47D, 0.0702 µM (active); in the assay with SK-OV-3, 0.292 µM (active); in the assay with HCT-116 it was 0.0265 µM (active); in the assay with SN12C, 0.0395 µM (active); with CAKI-1, 0.0348 µM (active). The GI50 is 0.366 µM (active) in the assay with UACC-62; 0.0703 µM (active) in the assay on TK-10; 1.23 µM (inactive) with RXF 393; 0.256 µM (active) in the assay with NCI-H226; 0.129 µM (active) in the assay with NCI-H522; < 0.0261 µM (active) in the assay with MOLT-4. Further, the GI50 in the assay on NCI-H23 is 0.105 µM (active); in the assay on A549, 0.218 µM (active).
For `N#C/C(=C\c1cccc(Br)c1)c1nc2ccccc2c(=O)[nH]1`, the GI50 in the assay with UO-31 was > 100 µM (inactive); with Malme-3M, > 100 µM (inactive); in the assay with CCRF-CEM it was > 100 µM (inactive); with SNB-75, 17.7 µM (inactive); in the assay with OVCAR-4 it was > 100 µM (inactive); in the assay with K562, > 100 µM (inactive). For the same compound, the GI50 with HCT-15 was over 100 µM; in the assay on T47D it was > 100 µM (inactive); in the assay on SK-OV-3, > 100 µM (inactive); in the assay with HCT-116, > 100 µM (inactive); with SN12C, > 100 µM (inactive); with CAKI-1 it was > 100 µM (inactive). The GI50 with UACC-62 was 76.2 µM (inactive); in the assay on TK-10 it was 42.1 µM (inactive); in the assay on RXF 393 it was > 100 µM (inactive); in the assay with NCI-H226, > 100 µM (inactive); with NCI-H522 it was 37.9 µM (inactive); in the assay on MOLT-4, > 100 µM (inactive). Besides, the GI50 in the assay on A549 is > 100 µM (inactive).
Consider `C=C=C(CC(CC(=C)Br)(C(=O)OC)C(=O)OC)S(=O)(=O)c1ccccc1`, for which the GI50 is 1.71 µM (inactive) in the assay with UO-31; 1.91 µM (inactive) in the assay with Malme-3M; 0.497 µM (active) in the assay on CCRF-CEM; 6.22 µM (inactive) in the assay with SNB-75; 8.89 µM (inactive) in the assay with OVCAR-4; 1.48 µM (inactive) in the assay with K562. Further, the GI50 with HCT-15 was 1.51 µM; in the assay on T47D, 3.77 µM (inactive); in the assay with SK-OV-3, 16.6 µM (inactive); in the assay with HCT-116, 0.92 µM (active); with SN12C, 1.53 µM (inactive); in the assay with CAKI-1, 1.41 µM (inactive). Besides, the GI50 in the assay on UACC-62 is 1.61 µM (inactive); in the assay on TK-10 it was 1.96 µM (inactive); in the assay on RXF 393 it was 1.83 µM (inactive); in the assay on NCI-H226, 6.12 µM (inactive); with NCI-H522, 0.556 µM (active); in the assay with MOLT-4, 1.91 µM (inactive). Moreover, the figures for the GI50 with NCI-H23 and in the assay with A549 were 2.05 µM (inactive) and 2.78 µM (inactive), respectively.

The values are drawn from ChEMBL document CHEMBL1201862, “PubChem BioAssay data set” (2004).
